# Data reported in patent US10138222B2, “Substituted benzamides as RIPK2 inhibitors” (Boehringer Ingelheim International GmbH, priority 2016, dated 2018).
# Biological target: RIPK2 (Homo sapiens (Human), UniProt O43353)
# Assay: RIPK2 inhibition, ADP-Glo Kinase Assay
# Type: biochemical
# Conditions: 8His-RIPK2 FL enzyme 8 nM, ATP 5 μM, 15 minutes pre-incubation, 60 minutes at 37° C., luminescence
# In short: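 Full-length 8His-RIPK2 (8 nM) preincubated 15 min at RT with compound (1% DMSO), then 5 μM ATP added for 60 min at 37 °C in HEPES pH 7.5 buffer with Mg2+/Mn2+. ADP measured by ADP-Glo luminescence; activity expressed as % of vehicle control, no-enzyme wells as low control.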
# Sequence of RIPK2 (O43353 whole entry): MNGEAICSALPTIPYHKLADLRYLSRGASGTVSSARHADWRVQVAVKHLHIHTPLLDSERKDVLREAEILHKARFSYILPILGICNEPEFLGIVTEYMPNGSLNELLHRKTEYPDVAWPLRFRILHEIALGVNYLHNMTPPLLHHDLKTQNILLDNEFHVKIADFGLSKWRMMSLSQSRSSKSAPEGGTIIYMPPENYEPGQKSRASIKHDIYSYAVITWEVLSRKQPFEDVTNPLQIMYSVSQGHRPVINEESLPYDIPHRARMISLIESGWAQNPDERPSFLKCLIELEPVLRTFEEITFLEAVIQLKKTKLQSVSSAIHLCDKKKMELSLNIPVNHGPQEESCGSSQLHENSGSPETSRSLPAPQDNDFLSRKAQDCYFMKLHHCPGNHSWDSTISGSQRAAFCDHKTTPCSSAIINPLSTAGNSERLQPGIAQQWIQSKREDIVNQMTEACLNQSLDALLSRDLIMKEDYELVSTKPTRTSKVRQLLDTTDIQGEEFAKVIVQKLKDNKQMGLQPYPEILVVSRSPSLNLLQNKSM
row,IC50 [nM],SMILES
1,1.4,"Cc1cc(F)c(C(=O)NC2CC2)cc1-c1cnn(-c2cncc(N3CCC(N(C)C)CC3)c2)c1 [Example 171, N-Cyclopropyl-5-[1-(4-dimethyl-amino-3,4,5,6-tetrahydro-2H-[1,3″]bipyridinyl-5″-yl)-1H-pyrazol-4-yl]-2-fluoro-4-methyl-benzamide]"
2,1.8,"Cc1cc(F)c(C(=O)NC2CC2)cc1-c1cnn(-c2cncc(OC[C@H]3CCN(C)C3)c2)c1 [Example 172, N-Cyclopropyl-2-fluoro-4-methyl-5-{1-[5-((S)-1-methyl-pyrrolidin-3-ylmethoxy)-pyridin-3-yl]-1H-pyrazol-4-yl}-benzamide]"
3,1.8,"CO[C@@H]1CN(C)CC[C@@H]1Nc1cncc(-n2cc(-c3cc(C(=O)NC4CC4)c(F)cc3Cl)cn2)c1 [Example 173, 4-Chloro-N-cyclopropyl-2-fluoro-5-{1-[5-((3R,4S)-3-methoxy-1-methyl-piperidin-4-ylamino)-pyridin-3-yl]-1H-pyrazol-4-yl}-benzamide]"
4,1.5,"Cc1cc(F)c(C(=O)NC2CC2)cc1-c1cnn(-c2cncc(NC3CCN(CCF)CC3)c2)c1 [Example 174, N-Cyclopropyl-2-fluoro-5-(1-{5-[1-(2-fluoro-ethyl)-piperidin-4-ylamino]-pyridin-3-yl}-1H-pyrazol-4-yl)-4-methyl-benzamide]"
